Results as given in PubChem BioAssay AID1919007 (Molecular Pharmacology Branch, DTP, NCI, 2023).
pIC50: −log10 of the molar value.

Test system: A498 complex spheroids with HUVEC/MSC, growth
Test: Anticancer human tumor A498 cell line growth inhibition [AhR];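 note: seven day exposure starting three days after spheroid seeding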;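 for viability, T/C: luminescence signal used as a surrogate for viable cells; luminescence viability scaled so 100% equals DMSO vehicle wells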
Conditions: for pIC50: curve of first compound; for viability, T/C: stronger effect = lower value
From the text: Multicellular complex tumor spheroid response to aryl hydrocarbon receptor antagonists in combination with a variety of drugs and investigational agents in selected tumor cell lines
The current study was undertaken to assess response to aryl hydrocarbon receptor antagonists in combination with standard-of-care drugs and investigational agents in solid tumor complex spheroid models. Complex spheroids include a stromal component modeled by human endothelial cells (HUVEC) and fibroblasts modeled by human mesenchymal stem cells (MSCs). The concentration ranges selected for each drug and investigational agent were based upon clinically achievable concentrations if the clinical Cmax of the agent was known.
Compounds. The drugs and investigational agents: BAY 2416964 (NSC825713), GNF351 (NSC835774), CH-223191 (NSC835775), CPI-455 (NSC825282), aza-TdCyd (NSC777586), decitabine (NSC127716), belinostat (NSC758774), entinostat (NSC756642), pevonedistat (NSC761192), tazemetostat (NSC777109), talazoparib (NSC765396), olaparib (NSC753686), selinexor (NSC780203), nedisertib (M3814, NSC802822), bortezomib (NSC756655), venetoclax (NSC766270), doxorubicin (NSC123127), elimusertib (BAY189344, NSC800525), ceralasertib (AZD6738, NSC777638), TAK-243 (NSC785004), alisertib (NSC759677), etoposide (NSC141540), topotecan (NSC609699), eribulin (NSC707389), gemcitabine (NSC613327), carboplatin (NSC241240), cisplatin (NSC119875), and SN-38 (NSC673596) were obtained from the National Cancer Institute (NCI) Developmental Therapeutics Program Chemical Repository (32). The FDA-approved anticancer drug set is available from the Developmental Therapeutics Program at https://dtp.cancer.gov/organization/dscb/obtaining/available plates.htm. […] The stock solutions were prepared in dimethyl sulfoxide (DMSO, Sigma-Aldrich, St. Louis, MO, cat. D2650), except for the platinum compounds which were prepared in saline (Quality Biological, Gaithersburg, MD, cat. 114-055-101), at 800-fold the tested concentration and stored at -70 degrees C prior to their use. All drugs and investigational agents were tested over a range starting from a high concentration at or near the clinical Cmax and decreasing in half-log increments. If the clinical Cmax for an agent had not been determined, the highest concentration tested was 10 microM (Table 1).
Cell Culture. All cells were maintained in an incubator at 37 degrees C and 5% CO2 with 95% humidity. The PDC lines were cultured according to standard operating procedures established by the NCI PDMR (https://pdmr.cancer.gov). Briefly, all PDCs were thawed and cultured in Matrigel-coated flasks prepared with a working solution of 1X Ham's F-12 nutrient mix, without supplementation (Invitrogen, Waltham, MA, cat. 11765054), 100 U/mL penicillin-streptomycin (Invitrogen, cat. 15140122), and 2.5% Matrigel (Corning Inc., Corning, NY, cat. 354248) for the first three passages. All PDCs were cultured in complete DMEM/F-12 media containing advanced DMEM/F-12 (Invitrogen, cat. 12634028), 4.9% defined fetal bovine serum, heat inactivated (HyClone Laboratories Inc., Logan, UT, cat. SH30070.03HI), 389 ng/mL hydrocortisone (Sigma-Aldrich, cat. H4001), 9.7 ng/mL human EGF recombinant protein (Invitrogen, cat. PHG0313), 23.4 microg/mL adenine (Sigma-Aldrich, cat. A2786), 97.3 U/mL penicillin-streptomycin (Invitrogen, cat. 15140122), 1.9 mM L-glutamine (Invitrogen, cat. 25030081), and 9.7 microM Y-27632 dihydrochloride (Tocris Bioscience, Bristol, United Kingdom, cat. 1254). The PDCs were cultured in complete DMEM/F12 media without 10 microM Y-27632 dihydrochloride for at least two passages prior to the screen. The established cell lines NCI-H1341 and […] were cultured in DMEM/F-12, HEPES (Invitrogen, cat. 11330032), 5% defined fetal bovine serum (HyClone Laboratories Inc., cat. SH30070.03), ITS premix universal culture supplement [insulin (5 microg/mL), transferrin (5 microg/mL), and selenious acid (5 ng/mL)] […]

[1] = second compound 0.1 µM, first compound 0.00316 µM
[2] = second compound 0.1 µM, first compound 0.01 µM
[3] = second compound 0.1 µM, first compound 0.0316 µM
[4] = second compound 0.1 µM, first compound 0.1 µM
[5] = second compound 0.1 µM, first compound 0.316 µM
[6] = second compound 0.1 µM, first compound 1 µM
[7] = second compound 0.316 µM, first compound 0.00316 µM
[8] = second compound 0.316 µM, first compound 0.01 µM
[9] = second compound 0.316 µM, first compound 0.0316 µM
[10] = second compound 0.316 µM, first compound 0.1 µM
[11] = second compound 0.316 µM, first compound 0.316 µM
[12] = second compound 0.316 µM, first compound 1 µM
[13] = second compound 1 µM, first compound 0.00316 µM
[14] = second compound 1 µM, first compound 0.01 µM
[15] = second compound 1 µM, first compound 0.0316 µM
[16] = second compound 1 µM, first compound 0.1 µM
[17] = second compound 1 µM, first compound 0.316 µM
[18] = second compound 1 µM, first compound 1 µM
[19] = second compound 3.16 µM, first compound 0.00316 µM
[20] = second compound 3.16 µM, first compound 0.01 µM
[21] = second compound 3.16 µM, first compound 0.0316 µM
[22] = second compound 3.16 µM, first compound 0.1 µM
[23] = second compound 3.16 µM, first compound 0.316 µM
[24] = second compound 3.16 µM, first compound 1 µM
[25] = second compound 10 µM, first compound 0.00316 µM
[26] = second compound 10 µM, first compound 0.01 µM
[27] = second compound 10 µM, first compound 0.0316 µM
[28] = second compound 10 µM, first compound 0.1 µM
[29] = second compound 10 µM, first compound 0.316 µM
[30] = second compound 10 µM, first compound 1 µM
[31] = second compound 0.1 µM, first compound 3.16 µM
[32] = second compound 0.1 µM, first compound 10 µM
[33] = second compound 0.316 µM, first compound 3.16 µM
[34] = second compound 0.316 µM, first compound 10 µM
[35] = second compound 1 µM, first compound 3.16 µM
[36] = second compound 1 µM, first compound 10 µM
[37] = second compound 3.16 µM, first compound 3.16 µM
[38] = second compound 3.16 µM, first compound 10 µM
[39] = second compound 10 µM, first compound 3.16 µM
[40] = second compound 10 µM, first compound 10 µM

| SMILES | pIC50 (second compound 0.1 µM) | pIC50 (second compound 0.316 µM) | pIC50 (second compound 1 µM) | pIC50 (second compound 3.16 µM) | pIC50 (second compound 10 µM) | viability, T/C [3] [%] | viability, T/C [4] [%] | viability, T/C [5] [%] | viability, T/C [6] [%] | viability, T/C [9] [%] | viability, T/C [10] [%] | viability, T/C [11] [%] | viability, T/C [12] [%] | viability, T/C [15] [%] | viability, T/C [16] [%] | viability, T/C [17] [%] | viability, T/C [21] [%] | viability, T/C [22] [%] | viability, T/C [27] [%] | viability, T/C [28] [%] | further results |
| --- | --- | --- | --- | --- | --- | --- | --- | --- | --- | --- | --- | --- | --- | --- | --- | --- | --- | --- | --- | --- | --- |
| CC1COCCN1c1cc(-c2ccnn2C)c2ccnc(-c3ccn[nH]3)c2n1 (stereo not given) + Cc1ccccc1N=Nc1ccc(NC(=O)c2ccnn2C)c(C)c1 | 7.66 | 7.30 | 7.07 | 7.01 | 7.07 | 49.7 | 34.2 | 25.1 | 15.7 | 58.8 | 33.9 | 17.8 | 17.8 | 74.7 | 47.4 | 16.4 | 84.3 | 47.9 | 69.9 | 47.6 | viability, T/C [1]: 71.7%; viability, T/C [2]: 54.4%; viability, T/C [7]: 71.2%; viability, T/C [8]: 86.6%; viability, T/C [13]: 87.5%; viability, T/C [14]: 94.8%; viability, T/C [18]: 12.9%; viability, T/C [19]: 94.7%; viability, T/C [20]: 87.7%; viability, T/C [23]: 20.8%; viability, T/C [24]: 11.1%; viability, T/C [25]: 90.1%; viability, T/C [26]: 87.1%; viability, T/C [29]: 23.1%; viability, T/C [30]: 13.9% |
| CC[C@@]1(O)C(=O)OCc2c1cc1n(c2=O)Cc2cc3c(CN(C)C)c(O)ccc3nc2-1 + Cc1ccccc1N=Nc1ccc(NC(=O)c2ccnn2C)c(C)c1 | < 7.00 | < 7.00 | < 7.00 | < 7.00 | < 7.00 | 75.7 | 74.7 |  |  | 74.3 | 74.2 |  |  | 71.5 | 66.5 |  | 69.8 | 64.2 | 78 | 63.4 | viability, T/C (second compound 0.1 µM, first compound 0.000316 µM): 88.9%; viability, T/C (second compound 0.1 µM, first compound 0.001 µM): 93.4%; viability, T/C [1]: 87.9%; viability, T/C [2]: 80.7%; viability, T/C (second compound 0.316 µM, first compound 0.000316 µM): 90.7%; viability, T/C (second compound 0.316 µM, first compound 0.001 µM): 99.7%; viability, T/C [7]: 92.8%; viability, T/C [8]: 81%; viability, T/C (second compound 1 µM, first compound 0.000316 µM): 87.5%; viability, T/C (second compound 1 µM, first compound 0.001 µM): 92.7%; viability, T/C [13]: 86.9%; viability, T/C [14]: 68%; viability, T/C (second compound 3.16 µM, first compound 0.000316 µM): 87.3%; viability, T/C (second compound 3.16 µM, first compound 0.001 µM): 90.4%; viability, T/C [19]: 87.7%; viability, T/C [20]: 74.7%; viability, T/C (second compound 10 µM, first compound 0.000316 µM): 84%; viability, T/C (second compound 10 µM, first compound 0.001 µM): 84.7%; viability, T/C [25]: 89.1%; viability, T/C [26]: 76.5% |
| COc1cccc2c1C(=O)c1c(O)c3c(c(O)c1C2=O)CC(O)(C(=O)CO)CC3OC1CC(N)C(O)C(C)O1 (stereo not given) + Cc1ccccc1N=Nc1ccc(NC(=O)c2ccnn2C)c(C)c1 | 6.54 | 6.40 | 6.43 | 6.40 | 6.40 | 61.7 | 52.4 | 49.6 | 23.8 | 65.6 | 61.6 | 55.7 | 25.5 | 58.6 | 60.4 | 52.9 | 59.9 | 62.6 | 61.7 | 57.5 | viability, T/C [31]: 1.17%; viability, T/C [32]: 0.89%; viability, T/C [33]: 1.09%; viability, T/C [34]: 1.35%; viability, T/C [18]: 25.7%; viability, T/C [35]: 1.54%; viability, T/C [36]: 0.92%; viability, T/C [23]: 52.9%; viability, T/C [24]: 30.6%; viability, T/C [37]: 2.05%; viability, T/C [38]: 0.61%; viability, T/C [29]: 55.4%; viability, T/C [30]: 27%; viability, T/C [39]: 1.19%; viability, T/C [40]: 1.56% |
| COc1cc(Nc2ncc3c(n2)-c2ccc(Cl)cc2C(c2c(F)cccc2OC)=NC3)ccc1C(=O)O + Cc1ccccc1N=Nc1ccc(NC(=O)c2ccnn2C)c(C)c1 | 5.72 | 5.74 | 5.82 | 5.87 | 5.59 | 70.2 | 73 | 65.8 | 54.4 | 70 | 72.4 | 70.7 | 54.9 | 67.8 | 67.2 | 59.6 | 69.2 | 72.7 | 63.9 | 63.4 | viability, T/C [31]: 46.6%; viability, T/C [32]: 33.5%; viability, T/C [33]: 45.2%; viability, T/C [34]: 34.2%; viability, T/C [18]: 56.5%; viability, T/C [35]: 41.3%; viability, T/C [36]: 31.8%; viability, T/C [23]: 62.2%; viability, T/C [24]: 49.9%; viability, T/C [37]: 44.8%; viability, T/C [38]: 31.8%; viability, T/C [29]: 56.7%; viability, T/C [30]: 59%; viability, T/C [39]: 47.9%; viability, T/C [40]: 35.1% |
